These are literature values, as cited in publication PMC3547157 (Journal of the American Chemical Society, 2012).

The target in this series is T1, COX-2 enzyme (Homo sapiens, UniProt P35354).
T1 sequence (P35354 18-604): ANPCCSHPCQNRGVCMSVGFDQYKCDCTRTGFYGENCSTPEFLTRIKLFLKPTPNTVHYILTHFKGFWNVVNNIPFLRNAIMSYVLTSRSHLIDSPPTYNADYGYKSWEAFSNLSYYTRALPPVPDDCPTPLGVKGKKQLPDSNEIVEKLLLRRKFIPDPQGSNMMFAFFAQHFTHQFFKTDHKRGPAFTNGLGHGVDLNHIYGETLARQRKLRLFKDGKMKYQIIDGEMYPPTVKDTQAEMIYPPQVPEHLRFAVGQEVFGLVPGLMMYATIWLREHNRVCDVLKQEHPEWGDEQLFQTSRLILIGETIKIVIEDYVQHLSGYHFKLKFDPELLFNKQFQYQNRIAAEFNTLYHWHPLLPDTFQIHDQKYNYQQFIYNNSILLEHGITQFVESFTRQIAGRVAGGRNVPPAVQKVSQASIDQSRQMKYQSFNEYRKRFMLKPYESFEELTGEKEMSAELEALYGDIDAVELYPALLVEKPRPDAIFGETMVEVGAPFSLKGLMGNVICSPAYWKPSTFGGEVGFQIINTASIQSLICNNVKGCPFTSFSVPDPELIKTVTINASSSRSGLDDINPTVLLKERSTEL
Conditions: read-out: reported IC50 of naproxen to COX-2; literature values.

Turning to `COc1ccc2cc([C@H](C)C(=O)O)ccc2c1` [naproxen], the IC50 was 2 to 28.4 µM.
